From BindingDB's records for doi:10.7270/Q2DF6PMF (Nmmlsc, 2007)

target: T1, N-formyl peptide receptor 2 (Homo sapiens, UniProt P25090); experiment: concentration-dependent FPRL1 ligand displacement – cell-based, FPR counter-screen, fluorescent ligand, dose response (AID 520)
T1 sequence (P25090 whole entry): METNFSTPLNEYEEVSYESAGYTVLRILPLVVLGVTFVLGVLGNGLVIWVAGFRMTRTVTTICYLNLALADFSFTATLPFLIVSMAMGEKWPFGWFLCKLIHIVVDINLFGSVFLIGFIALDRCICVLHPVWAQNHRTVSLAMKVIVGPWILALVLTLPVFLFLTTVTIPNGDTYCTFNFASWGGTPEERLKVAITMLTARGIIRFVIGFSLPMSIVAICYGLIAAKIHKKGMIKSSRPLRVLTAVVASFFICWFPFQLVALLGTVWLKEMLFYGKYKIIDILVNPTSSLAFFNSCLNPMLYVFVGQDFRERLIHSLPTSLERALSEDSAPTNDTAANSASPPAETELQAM

IC50	Ki	SMILES
> 66.7 µM		O=C(NCc1cccnc1)C1c2ccccc2C(=O)N1C1CCCCCC1 (stereo not given) [2-cycloheptyl-3-keto-N-(3-pyridylmethyl)isoindoline-1-carboxamide]
> 66.7 µM		O=C(NCc1cccnc1)C1c2ccccc2C(=O)N1C1CCCCCCC1 (stereo not given) [2-cyclooctyl-3-keto-N-(3-pyridylmethyl)isoindoline-1-carboxamide]
> 66.7 µM		CCC(CC)C(=O)Nc1c2cnn(-c3ccccc3)c2nc(=O)n1-c1ccccc1 [2-ethyl-N-(6-keto-1,5-diphenyl-pyrazolo[3,4-d]pyrimidin-4-yl)butyramide]
> 66.7 µM		CCOc1ccccc1Oc1c(C)oc2cc(OC(=O)c3ccco3)ccc2c1=O [2-furancarboxylic acid [3-(2-ethoxyphenoxy)-2-methyl-4-oxo-1-benzopyran-7-yl] ester]
> 66.7 µM		COc1ccccc1Oc1c(C)oc2cc(OC(=O)c3ccco3)ccc2c1=O [2-furancarboxylic acid [3-(2-methoxyphenoxy)-2-methyl-4-oxo-1-benzopyran-7-yl] ester]
> 66.7 µM		CC(C)(C)CC(=O)Nc1ccc(Nc2ccccc2)cc1 [3,3-dimethyl-N-(4-phenylazanylphenyl)butanamide]
> 66.7 µM	> 40.3 µM	CCCCc1c(O)n(-c2ccccc2)n(-c2ccccc2)c1=O [3,5-Dioxo-1,2-diphenyl-4-n-butylpyrazolidine]
> 66.7 µM	> 40.3 µM	COc1cccc(C2C(C(=O)c3cc4ccccc4o3)C(=O)C(=O)N2c2cc(C)on2)c1OC (stereo not given) [3-(1-benzofuran-2-carbonyl)-2-(2,3-dimethoxyphenyl)-4-hydroxy-1-(5-methyl-1,2-oxazol-3-yl)-2H-pyrrol-5-one]
> 66.7 µM	> 40.3 µM	COc1ccc(OC)c(C2C(C(=O)c3cc4ccccc4o3)C(=O)C(=O)N2c2cc(C)on2)c1 (stereo not given) [3-(1-benzofuran-2-carbonyl)-2-(2,5-dimethoxyphenyl)-4-hydroxy-1-(5-methyl-1,2-oxazol-3-yl)-2H-pyrrol-5-one]
> 66.7 µM	> 40.3 µM	O=C1C(=O)N(CCCN2CCOCC2)C(c2ccccn2)C1C(=O)c1cc2ccccc2o1 (stereo not given) [3-(1-benzofuran-2-carbonyl)-4-hydroxy-1-(3-morpholin-4-ylpropyl)-2-pyridin-2-yl-2H-pyrrol-5-one]
> 66.7 µM	> 40.3 µM	Cc1ccc(C2C(C(=O)c3sc(C)nc3C)C(=O)C(=O)N2CCN2CCOCC2)o1 (stereo not given) [3-(2,4-dimethyl-1,3-thiazole-5-carbonyl)-4-hydroxy-2-(5-methylfuran-2-yl)-1-(2-morpholin-4-ylethyl)-2H-pyrrol-5-one]
> 66.7 µM		Cc1csc(NC(=O)CCn2c(=O)oc3ccccc32)n1 [3-(2-keto-1,3-benzoxazol-3-yl)-N-(4-methylthiazol-2-yl)propionamide]
> 66.7 µM		Cc1oc2cc(O)cc(O)c2c(=O)c1-c1ccc2c(c1)OCCCO2 [3-(3,4-dihydro-2H-1,5-benzodioxepin-7-yl)-2-methyl-5,7-bis(oxidanyl)chromen-4-one]
> 66.7 µM		COc1ccc(-c2c(C)oc3c(CN4CCN(CCO)CC4)c(O)ccc3c2=O)cc1OC [3-(3,4-dimethoxyphenyl)-7-hydroxy-8-[[4-(2-hydroxyethyl)-1-piperazinyl]methyl]-2-methyl-1-benzopyran-4-one]
> 66.7 µM		CCC(CCC(=O)Nc1cccc(C(=O)O)c1)C(=O)O (stereo not given) [3-(4-carboxyhexanoylamino)benzoic acid]
> 66.7 µM		Fc1ccc(-c2nnc3ccc(N4CCCC4)nn23)cc1 [3-(4-fluorophenyl)-6-(1-pyrrolidinyl)-[1,2,4]triazolo[4,3-b]pyridazine]
> 66.7 µM		COc1ccc(-c2nc(-c3ccc(Br)o3)no2)cc1OC [3-(5-bromanylfuran-2-yl)-5-(3,4-dimethoxyphenyl)-1,2,4-oxadiazole]
> 66.7 µM	> 40.3 µM	CCCOc1ccc(C2C(C(=O)c3ccc(C)o3)C(=O)C(=O)N2Cc2cccnc2)cc1 (stereo not given) [3-(5-methylfuran-2-yl)carbonyl-4-oxidanyl-2-(4-propoxyphenyl)-1-(pyridin-3-ylmethyl)-2H-pyrrol-5-one]
> 66.7 µM	> 40.3 µM	COCCN1C(=O)C(=O)C(C(=O)c2ccco2)C1c1cccc(Oc2ccccc2)c1 (stereo not given) [3-(furan-2-carbonyl)-4-hydroxy-1-(2-methoxyethyl)-2-(3-phenoxyphenyl)-2H-pyrrol-5-one]
> 66.7 µM	> 40.3 µM	C=CCOc1cccc(C2C(C(=O)c3ccco3)C(=O)C(=O)N2CCN2CCOCC2)c1 (stereo not given) [3-(furan-2-carbonyl)-4-hydroxy-1-(2-morpholin-4-ylethyl)-2-(3-prop-2-enoxyphenyl)-2H-pyrrol-5-one]
> 66.7 µM	> 40.3 µM	O=C1C(=O)N(CCc2ccccc2)C(c2cccnc2)C1C(=O)c1ccco1 (stereo not given) [3-(furan-2-carbonyl)-4-hydroxy-1-(2-phenylethyl)-2-pyridin-3-yl-2H-pyrrol-5-one]

IC50	Ki	SMILES
> 66.7 µM	> 40.3 µM	CCCOc1ccc(C2C(C(=O)c3ccco3)C(=O)C(=O)N2CCCn2ccnc2)cc1 (stereo not given) [3-(furan-2-carbonyl)-4-hydroxy-1-(3-imidazol-1-ylpropyl)-2-(4-propoxyphenyl)-2H-pyrrol-5-one]
> 66.7 µM	> 40.3 µM	COCCCN1C(=O)C(=O)C(C(=O)c2ccco2)C1c1ccccc1 (stereo not given) [3-(furan-2-carbonyl)-4-hydroxy-1-(3-methoxypropyl)-2-phenyl-2H-pyrrol-5-one]
> 66.7 µM	> 40.3 µM	Cc1cc(N2C(=O)C(=O)C(C(=O)c3ccco3)C2c2cccnc2)no1 (stereo not given) [3-(furan-2-carbonyl)-4-hydroxy-1-(5-methyl-1,2-oxazol-3-yl)-2-pyridin-3-yl-2H-pyrrol-5-one]
> 66.7 µM	> 40.3 µM	O=C1C(=O)N(CC2CCCO2)C(c2cccnc2)C1C(=O)c1ccco1 (stereo not given) [3-(furan-2-carbonyl)-4-hydroxy-1-(oxolan-2-ylmethyl)-2-pyridin-3-yl-2H-pyrrol-5-one]
> 66.7 µM	> 40.3 µM	COCc1cc(C2C(C(=O)c3ccco3)C(=O)C(=O)N2CCOCCO)ccc1O (stereo not given) [3-(furan-2-carbonyl)-4-hydroxy-1-[2-(2-hydroxyethoxy)ethyl]-2-[4-hydroxy-3-(methoxymethyl)phenyl]-2H-pyrrol-5-one]
> 66.7 µM	> 40.3 µM	COc1cc(C2C(C(=O)c3ccco3)C(=O)C(=O)N2CCc2ccccc2)ccc1O (stereo not given) [3-(furan-2-carbonyl)-4-hydroxy-2-(4-hydroxy-3-methoxyphenyl)-1-(2-phenylethyl)-2H-pyrrol-5-one]
> 66.7 µM	> 40.3 µM	C=CCOc1ccc(C2C(C(=O)c3ccco3)C(=O)C(=O)N2Cc2cccnc2)cc1 (stereo not given) [3-(furan-2-carbonyl)-4-hydroxy-2-(4-prop-2-enoxyphenyl)-1-(pyridin-3-ylmethyl)-2H-pyrrol-5-one]
> 66.7 µM		O=C(Cn1c(=O)oc2ccccc21)N1CCN(c2ccccc2)CC1 [3-[2-keto-2-(4-phenylpiperazino)ethyl]-1,3-benzoxazol-2-one]
> 66.7 µM		Cc1nc2c(-c3ccc(F)cc3)c(C)nn2c(C)c1CCC(=O)NC(C)CCc1ccco1 (stereo not given) [3-[3-(4-fluorophenyl)-2,5,7-trimethyl-6-pyrazolo[1,5-a]pyrimidinyl]-N-[4-(2-furanyl)butan-2-yl]propanamide]
> 66.7 µM		CCOC(=O)CCn1nc(-c2ccc(Cl)cc2)cc1N [3-[5-amino-3-(4-chlorophenyl)-1-pyrazolyl]propanoic acid ethyl ester]
> 66.7 µM		Cc1ccccc1Nc1cc2ccccc2c(O)n1 [3-[(2-methylphenyl)amino]-2H-isoquinolin-1-one]
> 66.7 µM		Cc1ccc(Nc2ccc(C(=O)O)cc2N)cc1 [3-amino-4-(4-methylanilino)benzoic acid]
> 66.7 µM		COc1ccc2ccccc2c1C1CC(=O)N2CN(C3CCCCC3)CSC2=C1C#N (stereo not given) [3-cyclohexyl-8-(2-methoxynaphthalen-1-yl)-6-oxo-2,4,7,8-tetrahydropyrido[2,1-b][1,3,5]thiadiazine-9-carbonitrile]
> 66.7 µM	> 40.3 µM	O=C1CCCC(=O)C1C(C#Cc1ccccc1)C1C(=O)CCCC1=O [3-hydroxy-2-[1-(2-hydroxy-6-keto-cyclohexen-1-yl)-3-phenyl-prop-2-ynyl]cyclohex-2-en-1-one]
> 66.7 µM		Cc1c(C(=O)NC2CCCc3ccccc32)oc2ccc(S(=O)(=O)N3CCOCC3)cc12 (stereo not given) [3-methyl-5-(4-morpholinylsulfonyl)-N-(1,2,3,4-tetrahydronaphthalen-1-yl)-2-benzofurancarboxamide]
> 66.7 µM		O=C(Nc1nnc(-c2ccccc2Cl)o1)c1ccc(S(=O)(=O)N2CCCCCC2)cc1 [4-(1-azepanylsulfonyl)-N-[5-(2-chlorophenyl)-1,3,4-oxadiazol-2-yl]benzamide]
> 66.7 µM		CC1Oc2ccccc2N(Cc2ccccc2Cl)C1=O (stereo not given) [4-(2-Chloro-benzyl)-2-methyl-4H-benzo[1,4]oxazin-3-one]
> 66.7 µM		COc1ccc(-c2cc(C(F)(F)F)nc(N3CCCCC3)n2)cc1OC [4-(3,4-dimethoxyphenyl)-2-(1-piperidinyl)-6-(trifluoromethyl)pyrimidine]
> 66.7 µM		COc1ccc(-c2cc(C(F)(F)F)nc(N3CCN(c4ccccc4)CC3)n2)cc1OC [4-(3,4-dimethoxyphenyl)-2-(4-phenyl-1-piperazinyl)-6-(trifluoromethyl)pyrimidine]
> 66.7 µM		CCOC(=O)c1ccc(NC(=O)Nc2ccc3c4c(cccc24)C(=O)N3CC)cc1 [4-[(1-ethyl-2-keto-benzo[cd]indol-6-yl)carbamoylamino]benzoic acid ethyl ester]
> 66.7 µM	> 40.3 µM	COC(=O)c1ccc(C2C(C(=O)c3ccc(OC)cc3)C(=O)C(=O)N2Cc2ccco2)cc1 (stereo not given) [4-[(3Z)-1-(2-furanylmethyl)-3-[hydroxy-(4-methoxyphenyl)methylidene]-4,5-dioxo-2-pyrrolidinyl]benzoic acid methyl ester]
